Reference: patent US8222261B2, “Chemical compounds” (GlaxoSmithKline, LLC, priority 2006, dated 2012)

Assays:
[1] = tested on: transgenic wild-type (WT) and GPR119 knock-out (KO) mice; test: Effect on circulating GLP-1 and GIP in wild-type and GPR119 knock-out mice; format: in vivo; conditions: 30 mg/kg oral gavage; for incretin hormone levels (total GLP-1 and GIP): 60 min after dosing
Method: 17 weeks old male transgenic wild-type (WT) and GPR119 knock-out (KO) mice (Charles River Laboratories, USA) were fasted overnight then randomly distributed into two treatment groups for each genotype with n=8 and n=10 animals per treatment group for KO and WT mice respectively. Animals received either vehicle (0.5% HPMC/0.1% Tween80) or a GPR119 agonist (Example 1) at a dose of 30 mg/kg (10 mL/kg), administered by oral gavage. Sixty minutes after the oral gavage the mice were anesthetized using isofluorane and a blood sample was collected by cardiac puncture, before sacrificing the animal by cervical dislocation. Blood samples were treated as described above for determination of incretin hormone levels. Plasma glucose levels were measured using an Olympus AU640 analyzer (Olympus America Inc, Melville, N.Y.), and insulin levels an electrochemoluminescence assay (Bioveris, Gaithersburg Md.).
Data is represented as box plots summarizing the distribution of data for each treatment group, as described above. Horizontal lines represent the mean data. FIG. 3 and FIG. 4 show total GLP-1 and GIP levels measured in circulation following administration of vehicle or 30 mg/kg GPR119 agonist (Example 1) in WT and KO mice.

[2] = tested on: Male Sprague-Dawley rats; test: Effect on circulating GLP-1 and GIP in vivo in rats; conditions: 10 mg/kg oral
Method: On the day before the experiment, food was removed in the afternoon and the following morning animals were randomly assigned to two treatment groups, vehicle (n=7) or a GPR119 agonist (Example 1; n=8). Blood samples were collected prior to, and 90 minutes following oral administration of either vehicle (0.5% HPMC/0.1% Tween80) or 10 mg/kg of Example 1. Blood samples were treated as described above and analyzed for incretin hormones, plasma glucose and insulin. The rats were sacrificed at the end of the study by an overdose of Nembutal® pentobarbital.
Data is represented as line graphs of the measurements prior to gavage (Pre) and 90 min following administration of vehicle or GPR119 agonist (Post) analyzed for total GLP-1 (FIG. 7), total GIP (FIG. 8), plasma glucose (FIG. 9) and insulin (FIG. 10) for individual animals.

[3] = tested on: Male Sprague-Dawley rats; test: Oral glucose tolerance in rats; format: in vivo; conditions: fasted rats, 10 mg/kg oral
Method: Eight weeks old male Sprague-Dawley rats had catheters surgically implanted into the jugular […] vein and allowed to recover for one week. Food was removed in the afternoon the day before the experiment to fast animals overnight. The following morning animals were randomly assigned to treatment groups to receive vehicle (n=7) (0.5% HPMC/0.1% Tween80), a GPR119 agonist (Example 1, 10 mg/kg) or a positive control (10 mg/kg), namely a DPPIV inhibitor as described above. Vehicle and compounds were delivered by oral gavage at a volume of […]. Two and a half hours after administration of vehicle or GPR119 agonist and one hour administration of DPPIV inhibitor, 2 g/kg dextrose was administered orally. […] The tubes were immediately centrifuged, plasma collected for subsequent measurement of glucose and hormone levels and stored at −80° C. Plasma glucose, insulin and total GLP-1 levels were measured as described above.
The data is represents as mean values±SEM from all animals within each treatment group.

[4] = tested on: transgenic wild type (WT) and GPR119 knock-out (KO) mice; test: Oral glucose tolerance in wild type and GPR119 knockout mice; format: in vivo; conditions: 2 g/kg dextrose oral 1 h after dosing
Method: Male transgenic wild type (WT) and GPR119 knock-out (KO) mice (Charles River Laboratories, USA), at an age of 12 weeks, were fasted overnight (approximately 15 hrs) then randomly grouped (n=8-10) to receive vehicle (0.5% HPMC/0.1% Tween80), a GPR119 agonist (30 mg/kg) or a positive control (10 mg/kg), the DPPIV inhibitor as described above. Vehicle or compounds were delivered orally by oral gavage at a volume of 10 mL/kg, and the tip of tail was nicked using a scalpel to allow whole blood glucose measurements. One hour after administration of vehicle or test compounds, dextrose was administered orally at 2 g/kg. Whole blood glucose levels were measured prior to, and 10, 20, 30, 45, 60, 90 and 120 min after the oral glucose load using a Glucometer (Freestyle, Therasense) from the tip of tail. At the end of the study the mice were sacrificed by cervical dislocation.
The glucose tolerance was calculated as the area under the glucose curve (AUC). Data is represented as box plots summarizing the distribution of data for each treatment group, as described above. Horizontal lines represent the mean data.

[5] = fasted rats, 90 min after dosing vs pre-dose
[6] = rats, 90 min, vs vehicle or baseline

CC(C)OC(=O)N1CCC(Oc2ncnc3c2CCN3c2ccc(S(C)(=O)=O)cc2F)CC1 [Example 1, 1-Methylethyl 4-({7-[2-fluoro-4-(methylsulfonyl)phenyl]-6,7-dihydro-5H-pyrrolo[2,3-d]pyrimidin-4-yl}oxy)-1-piperidinecarboxylate]
incretin hormone levels (total GLP-1 and GIP) ([1]; GPR119 knock out mice): without effect | fasting glucose levels ([1]; WT and KO mice, 60 min): not affected | fasting insulin levels ([1]; WT and KO mice, 60 min): not affected | incretin hormone levels (total GLP-1 and GIP) ([1]; WT mice): increase | circulating levels of total GIP [2, 5]: increases | circulating levels of total GLP-1 [2, 5]: increases | fasting glucose [2, 6]: not significantly affected | fasting insulin [2, 6]: not significantly affected | reduction of total glucose area under the curve (AUC) ([3]; Example 1 2.5 h and DPPIV inhibitor 1 h before 2 g/kg dextrose oral): 38% | glucose excursion during the 120 minutes oral glucose tolerance test ([3]; Example 1 2.5 h and DPPIV inhibitor 1 h before 2 g/kg dextrose oral, vs vehicle): significantly decreased | baseline total GLP-1 ([3]; before the oral glucose load, compared to vehicle and DPPIV treated animals): significantly increased | Insulin AUC ([3]; oral glucose tolerance test, between treatment groups): not significantly different | total GLP-1 AUC ([3]; oral glucose tolerance test, compared to vehicle and DPPIV treated animals): significantly increased | glucose tolerance ([4]; GPR119 KO mice, 30 mg/kg oral): no effect | reduction of total glucose AUC ([4]; WT mice, Example 1 30 mg/kg, DPPIV inhibitor 10 mg/kg oral): 28%
